The source of these data is patent publication US11730795B2, “Pharmaceuticals and dosing means for human aging reversal” (INTERVENE IMMUNE, INC., priority 2017, dated 2023).

A short description of data set [1]: Tolerability of high metformin doses. The class given is in vivo, human. The procedure:
We were able to use higher doses with minimal to no difficulty by devising the following dosing methods.
In these methods, “dinner” need not be taken literally, the essence of the concept being to essentially administer a large virtual dose by combining two smaller doses that are administered within an effective time span, which may be 1-5 hours in duration, but preferably 1-2 hours in duration, to reduce side effects such as gastric distress while still enabling increased control of hyperinsulinemia.

The next data set concerns epigenetic age. The note with it: women, ref [35]; cited from earlier work.
The test system of another data set is insulin. It counts as in vivo, human. The conditions noted are these: for control of GH-induced hyperinsulinemia by single agent: each agent alone with GH. The text has this: (§1) Data variability was minimized and controlled by using each volunteer as their own control, and by standardizing the time and day of blood sampling. Blood was generally collected between 7 AM and 10 AM to avoid the effects of circadian and other temporal influences. In addition, patients standardized their pre-testing evening meal, used consistent testing sites and methods, and were redundantly tested between pre-established time points in some cases. All volunteers were asked to take supplements of 3000 IU vitamin D3 and 50 mg of elemental zinc daily. Further, volunteers were instructed not to consume food or alcohol within 4 hours of medication administration.
(§2) The initial dose of GH was 0.015 mg/kg, injected subcutaneously into superficial abdominal fat using a provided “pen” injector designed for this purpose. GH doses were varied over the time course described above so as to maximize IGF1, and were not adjusted for any changes in body weight.
Here, for context, insulin blood levels are expressed as a fraction of the distance from the bottom of the normal range to the top of the normal range. Although insulin control was not perfect, the final increase in insulin at trial end was acceptable based on volunteers averaging about one fifth of the upper limit for insulin. […] . Insulin and the normal insulin range were as reported by Quest Diagnostics.

The next data set relates to prostate. In words: Report of one individual: prostatic hypertrophy with DHEA. The class given is in vivo, human. From the text:
Accordingly, our results, methods, and medication compositions and combinations enable beneficial new treatments to improve human health and enable beneficial new drug indications.

Data set [2] can be described thus: TRIIM trial: testosterone levels and benign prostatic hypertrophy under DHEA. The note with it: with GH or GH plus metformin.
From the text: Nine normal, putatively healthy 50-65 year-old male volunteers with normal age-related thymic involution were enrolled in and completed a clinical study performed under an IND from the US Food and Drug Administration and separate supervision from a California Institutional Review Board. […] The TRIIM trial (standing for Thymus Regeneration, Immunorestoration, and Insulin Mitigation) treatment period was limited to 12 months. Exclusion criteria included GH use in the prior 10 years, carpal tunnel syndrome, malignancies or high risk of malignancy, BMI greater than 30, PSA above the age-adjusted range, symptomatic prostatic hypertrophy, unstable metabolic disorders, unstable cardiovascular disorders, elevated levels of inflammatory markers, alcoholism, allergy to study medications, cognitive impairment, abnormal metabolic or hormonal results, existing type 1 or type 2 diabetes, or other unstable medical conditions.
The conditions of data set [3]: 50 mg per day, 65-75 year old men, no GH, ref [46]; cited from earlier work.
The test system of another data set is CD4/CD8 cell ratio. As to the kind of experiment: TRIIM trial: CD4/CD8 cell ratio. It counts as in vivo, human. The note with it: peak at 3, 6-9 or 12 months in different men; one non-responder.
From the text: as §1, §2
The decline of CD4/CD8 cell ratio with aging is a classical indication of the “immune risk phenotype” or immunosenescence, and appears to occur with or without chronic viral exposure and has been a strong predictor of the short-term risk of death. Our results therefore indicate that prior art methods of regenerating the thymus require improvement. […]

As for `CN(C)C(=N)N=C(N)N` [metformin], the tolerability result in data set [1] (500 mg with dinner plus 1000 mg with HGH and DHEA, total 1500 mg) is reported as “universally well tolerated”; in data set [1] (1500 mg at dinner plus 1000 mg with DHEA and HGH at bedtime, 2500 mg), “well tolerated”; in data set [1] (1500 or 2000 mg in one dose with GH at bedtime), “well tolerated”. The “effect on epigenetic aging” value in the data set on epigenetic age is reported as “not shown to either slow or reverse epigenetic aging”. Also, the “control of GH-induced hyperinsulinemia” value with insulin (850-1200 mg metformin, morning after GH dose, even with DHEA) was “very insufficient”. In addition, the “control of GH-induced hyperinsulinemia by single agent” value in the data set with insulin is listed as “neither agent alone was sufficient”.
As for `C[C@]12CC[C@H](O)CC1=CC[C@@H]1[C@@H]2CC[C@]2(C)C(=O)CC[C@@H]12` [DHEA, dehydroepiandrosterone], the prostatic hypertrophy result in the data set with prostate (DHEA alone or in combination with metformin) was “caused immediate and significant prostatic hypertrophy”; in the data set on prostate (DHEA in combination with both metformin and GH), “actually reversed”. Also, in data set [2] (doses up to 200 mg), the “raising of testosterone levels” value is “not found”. The “induction of benign prostatic hypertrophy” value in data set [2] is “not found”. Further, the glucose tolerance entry in data set [3] is “improve glucose tolerance”. For the same molecule, the “control of GH-induced hyperinsulinemia by single agent” value with insulin is on record as “neither agent alone was sufficient”.
As to human growth hormone [GH], in the data set on insulin (in vivo), the “insulin level with GH alone” value is “rise in insulin”. Besides, the “course of CD4/CD8 cell ratio” value in the data set with CD4/CD8 cell ratio was “peaks in the face of a constant or an increasing dose of GH or rise in IGF-1, and thereafter declines”.
